# Peptide text beside a SMILES is read from it.
# Tests used:
# [1] = target: T1, MPO (Homo sapiens, UniProt P05164); experiment: KYC/AA(n) peptide inhibition of MPO HOCl production (TMB assay) at varied pH; type: biochemical
# T1 sequence (P05164 49-745): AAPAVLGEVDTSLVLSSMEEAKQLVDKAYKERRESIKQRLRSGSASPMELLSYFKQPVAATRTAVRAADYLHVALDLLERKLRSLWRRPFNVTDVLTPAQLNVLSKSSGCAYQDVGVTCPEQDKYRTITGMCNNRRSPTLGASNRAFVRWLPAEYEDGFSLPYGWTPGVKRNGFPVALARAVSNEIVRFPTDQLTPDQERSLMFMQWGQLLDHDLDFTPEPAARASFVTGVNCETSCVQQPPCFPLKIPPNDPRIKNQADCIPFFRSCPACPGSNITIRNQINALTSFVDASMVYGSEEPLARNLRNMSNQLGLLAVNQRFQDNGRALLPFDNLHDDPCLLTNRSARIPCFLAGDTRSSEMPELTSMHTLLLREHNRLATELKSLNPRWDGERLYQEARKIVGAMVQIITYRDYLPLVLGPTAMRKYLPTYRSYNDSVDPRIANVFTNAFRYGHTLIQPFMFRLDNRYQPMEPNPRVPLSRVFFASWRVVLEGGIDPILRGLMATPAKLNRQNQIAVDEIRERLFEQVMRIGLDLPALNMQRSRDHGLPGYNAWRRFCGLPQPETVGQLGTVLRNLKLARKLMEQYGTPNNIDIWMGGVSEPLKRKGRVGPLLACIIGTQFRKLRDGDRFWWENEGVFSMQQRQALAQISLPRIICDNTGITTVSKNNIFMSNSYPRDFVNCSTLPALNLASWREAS
# Text: Small peptides of generic formula AA(n) (where AA represents different amino acids, and n can be 2-5) are both substrates and inhibitors of MPO (alternatively, inhibitors of EPO). These peptides are […] at the active site of MPO, which subsequently decreases the production of toxic oxidants that includes but not restricted to hypochlorous acid. All MPO activities (i.e., hypochlorous acid production) described herein were quantified by the 3,3′,5,5′-tetramethylbenzidine (TMB) assay. […] The free radical itself may act as an activated species, and is stable enough to react with proximal proteins, peptides, metabolites or small molecules to effect further change. The free radical is not limited to a single target, but may effect change multiple independent targets. In a non-limiting example, the free radical goes on to form a hetero- or homo dimer via an oxidized —S—S— disulfide (or di-Selenium) linkage. Finally, the more interactions between the peptide and active site of MPO that occurs the lower numerical IC50 value of the peptide inhibitor.
# KYZ is […] in the presence of MPO, which subsequently decreases the production of hypochlorous acid. All MPO activities (i.e., hypochlorous acid production) were quantified by the 3,3′,5,5′-tetramethylbenzidine (TMB) assay. The tripeptide KXZ, requires amino acid #1 (AA1, K) to be a native amino acid or an artificial amino acid (aa) with a basic side-chain such as an amine functional group (e.g., Lysine (K)). Amino acid #2 (AA2, X) is a native or artificial amino acid that may contain a polar, non-polar, or aromatic amino acid.
# [2] = tested on: lung lysates of neonatal rat pups; experiment: Hyperoxia-induced BPD in neonatal rat pups: immunoblot, affinity blot and pulldown analysis of lung lysates; conditions: for Nrf2 activation: lung lysates
# Experimental: The dose of KYC (5 mg/kg twice per day) was chosen based on experience treating chronic inflammation in other disease states (58, 60, 61). […] Equal volumes of PBS were injected i.p. into the remaining half of the pups as an injection control. Pups were euthanized on P10 with carbon dioxide and lungs removed en bloc. A small cut was created on the left atrium and ice-cold normal saline was gently infused through the right ventricle to flush blood from the lungs before inflation for histology or snap-frozen in liquid nitrogen for protein studies. Pups from at least three litters were used in each experiment.
# Immunoblot Analysis: Whole lung lysates were obtained by homogenizing in MOPS buffer (20 mM 3-N-morpholino-propanesulfonic acid, 2 mM EGTA, 5 mM EDTA, 30 mM NaF, 10 mM β-glycerophosphate, 10 mM Na pyrophosphate, 2 mM Na orthovanadate, 1 mM PMSF, 0.5% NP-40, 1% protease inhibitor cocktail, and 1% phosphatase inhibitor cocktails 2 and 3, pH 7.0) by Bullet Blender (Next Advance, Inc., Averill Park, N.Y.). For protein immunoblots, 30 μg of protein lysate was separated by SDS-PAGE, transferred to nitrocellulose membranes (0.22 μm), and then probed with the appropriate primary antibodies overnight at 4° C. on a continuously rocking platform. Signals were generated after incubation with horseradish peroxidase-conjugated goat anti-rabbit or anti-mouse IgG (1:8,000) using Western Bright ECL Chemiluminescent HRP Substrate (Advansta Inc., Menlo Park, Calif.). Integrated optical density (IOD) was calculated using ImageJ software and normalized to β-actin, a loading control.
# [3] = tested on: adult mice; experiment: Review of KYC doses in previous studies in adult mice; type: in vivo, mouse; conditions: 15 mg/kg twice per day vs 800 mg/kg
# Experimental: No KYC dose-response studies were performed in neonatal rat pups in preparation for the current study. Instead, we decided to treat neonatal rat pups empirically with KYC at 5 mg/kg twice per day based on published and unpublished data in adult mice. […] The dose of KYC used in the current study is based on our experience in treating chronic inflammation in other disease states and is within the range that we consider appropriate for neonatal rat pups and adult rats.
# [4] = hyperoxic lungs, KYC vs PBS, P10
# [5] = hyperoxic pups treated with KYC, P10, PBS 1.0±0.2
# [6] = hyperoxic pups, KYC vs PBS, P10
# [7] = lungs of hyperoxic pups, KYC vs PBS
structure (smiles),measurement,setting,value
"CC(=O)N[C@@H](CCCCN)C(=O)N[C@@H](Cc1ccc(O)cc1)C(=O)N[C@@H](CS)C(N)=O [KYC, N-acetyl lysyltyrosylcysteine amide] (Ac-Lys-Tyr-Cys-NH2)",IC50 values compared with KLC,"[1]; pH values of 6.5, 7.4 and 8.0",superior
same,"IC50 values, inhibition of MPO HOCl production",[1]; varied pH,changing of pH has limited effect on the IC50 values
same,"CD31 levels (immunoblot, relative)","[2]; KYC-treated HOX group, P10, PBS-treated HOX 1.0±0.1",1.2±0.3
same,Nrf2 levels (FIG. 22),[2]; hyperoxia exposed rat pup lungs,decreased Nrf2 levels
same,"NO2-Tyr levels (immunoblot, relative)","[2]; hyperoxia pups, KYC 5 mg/kg twice per day i.p., P10, PBS 1.0±0.1",0.6±0.2
same,"MPO levels (immunoblot, relative)","[2]; hyperoxia pups, KYC 5 mg/kg twice per day i.p., P10, PBS 1.0±0.3",0.6±0.1
same,cell death in lungs (FIG. 20),[2]; hyperoxia-exposed rat pup lungs,reduces cell death
same,reduction of Cl-Tyr formation,[2]; [4],approximately 27%
same,reduction of MPO protein,[2]; [4],approximately 50%
same,reduction of NO2-Tyr,[2]; [4],approximately 32%
same,"TLR4 expression in lungs (immunoblot, relative)","[2]; hyperoxic pups treated with KYC, P10, PBS 1.0±0.1",0.8±0.2
same,"HMGB1 levels in lungs (immunoblot, relative)",[2]; [5],0.6±0.2
same,"RAGE expression in lungs (immunoblot, relative)",[2]; [5],0.5±0.2
same,HMGB1 isoform in lung lysates (non-acetylated vs lysyl-acetylated),"[2]; hyperoxic pups, KYC vs PBS",shifted the HMGB1 in lung lysates from the non-acetylated (HMGB1) to the lysyl-acetylated (Ac-HMGB1) isoform
same,reduction of pulmonary Cox1,"[2]; hyperoxic pups, KYC vs PBS",20-30%
same,reduction of pulmonary Cox2,"[2]; hyperoxic pups, KYC vs PBS",60-70%
same,decrease of HMGB1 levels in lung homogenates/lysates,[2]; [6],approximately 38%
same,increase of CD31 (endothelial cells),[2]; [6],approximately 23%
same,reduction of RAGE expression,[2]; [6],60%
same,sulfonyl HMGB1 levels,"[2]; hyperoxic pups, relative to PBS-treated",increased sulfonyl HMGB1 levels
same,S-glutathionylation of Keap1,[2]; lung lysates from hyperoxic pups,increased
same,HMGB1 association with TLR4 (HMGB1 pulldown),"[2]; lung lysates from hyperoxic pups, KYC vs PBS",decreased HMGB1 association with TLR4
same,B-KYC thiylation of Keap1,"[2]; lung lysates from hyperoxic pups, KYC P2-P9 then once B-KYC 5 mg/kg",increased B-KYC thiylation of Keap1
same,Nrf2 activation,[2]; hyperoxic pups,increased Nrf2 activation in lung lysates from hyperoxic pups
same,Nrf2 activation,[2]; normoxic pups,increased Nrf2 activation in lung lysates
same,GST expression,[2]; [7],increased
same,HMGB1 association with RAGE (HMGB1 pulldown),[2]; [7],reduced
same,HO-1 expression,[2]; [7],increased
same,Trx expression,[2]; [7],increased
same,factor by which the higher dose is below the KYC level observed to induce adverse effects,[3],more than 26 times

# From patent publication US20220409692A1, “Systems Chemico-Pharmacology Drugs and Methods of Use” (The Medical College of Wisconsin, priority 2019, published 2022)
